Experimental data: patent publication US20150159169A1, “Plants Tolerant to HPPD Inhibitor Herbicides” (Bayer CropScience AG, priority 2009, published 2015)
Like-named read-outs stand apart in the source and are kept apart here.

Legend:
[1] = biological target: Kordia algicida HPPD "SEQ ID No. 5" (Kordia algicida, UniProt A9DQF2); assay: biochemical; settings: for inhibition at 5 µM: read-out: percentage of inhibition compared to the activity in absence of the inhibitor
[2] = tested on: tobacco leaf disks containing SEQ ID No. 7 (Kordia algicida HPPD); assay: Leaf disk regeneration on HPPD inhibitor media; format: cell-based, Nicotiana tabacum; settings: 6 weeks
Experimental: (§1) At the end of the experiments the level of regeneration was evaluated as followed:
(§2) “−” means that the leaf disks looked the same as leaf disk from wild type tobacco plants on media supplemented with the inhibitor mentioned above.
(§3) “++++” means that the leaf disks looked like the leaf disks from the wild type tobacco plants on media without inhibitor.
(§4) “+”, “++”, and “+++” indicate regenerated leaf disks were heavily (+), medium (++) and less (+++) affected by the presence of the inhibitors.

[3] = tested on: tobacco leaf disks containing SEQ ID No. 11 (Arabidopsis HPPD); assay: Leaf disk regeneration on HPPD inhibitor media; format: cell-based, Nicotiana tabacum; settings: 6 weeks
Experimental: as §1, §2, §3, §4

[4] = tested on: T1 tobacco plants carrying FMP27e; assay: Glasshouse response to bicyclopyrone, injury classes; format: in vivo, Nicotiana tabacum; settings: 100 g AI/ha, 7 DAT
Excerpt: (§5) Seeds of wild type tobacco plants and T1 tobacco plants carrying the gene from Kordia algicida FMP27e coding for HPPD were sown on MS media (Murashige and Skoog 1964) supplemented with […] kanamycin. After 4 weeks, rooted green plantlets were transferred to soil and grown for 3 weeks in the glasshouse as described above then sprayed with a mixture containing bicyclopyrone (100 g AI/ha), ammonium sulfate and methyl ester raps oil. The plants were classified in two categories based on the phenotype developed in response to the herbicide seven days after the treatment. […] In this case, only plants containing at least one T-DNA were exposed to the herbicidal treatment.

wild type tobacco plants = assay: as above; format: in vivo, Nicotiana tabacum; settings: 100 g AI/ha, 7 DAT; WT
Excerpt: as §5

[5] = biological target: Kordia algicida HPPD "SEQ ID No. 5" (FMP27e) (Kordia algicida, UniProt A9DQF2); assay: HPLC assay of HPPD in vitro kinetic properties; format: biochemical
Experimental: (§6) Km, Vmax, and kcat values for different HPPD enzyme preparations and Ki, K1=Kon, and K−1=Koff for different HPPD inhibitors were determined using a HPLC assay for measurements of HPPD activity. […] All assays were started by the addition of HPPD enzyme to the assay mixture and stopped at a series of times between 0 and 240 s by addition of 200 μl of the reaction mixture to reaction assay tubes containing 20 μl 10% perchloric acid. Precipitated protein was pelleted by a 5 minute centrifugation at 10,000 g.
(§7) For Km and Vmax value determinations the initial rates of the HPPD reaction at different substrate concentrations were determined from plots of HGA formed versus time and fitted to the Michaelis-Menten equation for unireactant enzymes using the ID Business Solutions Ltd. (idbs.com) XLfit software suite.

[6] = tested on: tobacco plants containing FMP27t-h, PAT and 2mEPSPS (pFCO116); assay: Glasshouse response of three-tolerance-gene tobacco to herbicides, injury classes; format: in vivo, Nicotiana tobacum; settings: 9 DAT
Experimental: A binary vector for tobacco transformation is, for example, constructed with the CaMV35 promoter driving the expression of the gene FMP27t-h (SEQ ID No. 15), with a codon usage optimized for the expression in dicotyledoneous plants and at its 5′extremity was added a sequence coding for an OTP, and further upstream a sequence TEV (Tobacco etch virus) to improve the stability of the mRNA in plants followed by the CaMV35S terminator. The nucleotide sequence of the gene FMP27t-h is given in SEQ ID No. 15. Additionally, the transformation vector also contains a PAT gene cassette in which the gene is driven by a CaVM35S promoter and followed by a CaMV35S terminator for glufosinate based selection during the transformation process and a 2mEPSPS gene cassette in which the gene is driven by an histone promoter from Arabidopsis to confer tolerance to the herbicide glyphosate to the transformed plants (see FIG. 3 H). The binary vector was called pFCO116. The above vector was used to transform leaf disc obtained from Nicotiana tobacum plants, according to Example 3.
Transgenic tobacco plants were transferred to the greenhouse and treated with glyphosate at a rate of 1121 g AI/ha. Seeds were produced from such tolerant tobacco plants and harvested. These seeds were put on soil to germinate in the glasshouse. Three to four weeks later, 50 plantlets per event were transferred to single pots. Two weeks later, plants of a size 4-6 cm were sprayed either with
[…] […] Non-transgenic tobacco plants were completely killed by treatment using one or more of the above herbicides.

[7] = biological target: T1, Arabidopsis thaliana HPPD "SEQ ID No. 10" (Arabidopsis thaliana, UniProt P93836); assay: HPLC assay of HPPD in vitro kinetic properties; format: biochemical; settings: substrate HPP varied 10-400 μM; enzyme SEQ ID No. 10
T1 construct: made in house; host or cells: E. coli K-12 BL21 (pQE30-AtHPPD)
T1 sequence (P93836 with tags, fused parts or gaps): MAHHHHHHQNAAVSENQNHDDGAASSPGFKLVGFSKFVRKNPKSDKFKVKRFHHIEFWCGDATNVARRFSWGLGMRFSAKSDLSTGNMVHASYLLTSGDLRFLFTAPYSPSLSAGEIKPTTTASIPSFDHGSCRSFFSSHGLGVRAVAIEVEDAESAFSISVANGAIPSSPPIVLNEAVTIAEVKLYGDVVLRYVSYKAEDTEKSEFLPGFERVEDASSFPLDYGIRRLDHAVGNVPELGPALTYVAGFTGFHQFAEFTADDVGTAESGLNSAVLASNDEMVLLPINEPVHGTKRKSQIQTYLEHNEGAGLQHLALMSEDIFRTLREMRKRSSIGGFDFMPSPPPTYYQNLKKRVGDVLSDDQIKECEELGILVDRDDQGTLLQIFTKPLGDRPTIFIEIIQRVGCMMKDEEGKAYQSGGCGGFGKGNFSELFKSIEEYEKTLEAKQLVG
Experimental: as §6, §7

[8] = biological target: T1, Arabidopsis thaliana HPPD "SEQ ID No. 10"; assay: HPPD activity in presence of HPPD inhibitors (pI50, % inhibition); format: biochemical
[9] = 5.0 × 10^−6M inhibitor, enzyme SEQ ID No. 5
[10] = substrate HPP varied 10-400 μM, enzyme SEQ ID No. 5

Kordia algicida HPPD "SEQ ID No. 5" (FMP27e), sequence (A9DQF2 entry or part of it): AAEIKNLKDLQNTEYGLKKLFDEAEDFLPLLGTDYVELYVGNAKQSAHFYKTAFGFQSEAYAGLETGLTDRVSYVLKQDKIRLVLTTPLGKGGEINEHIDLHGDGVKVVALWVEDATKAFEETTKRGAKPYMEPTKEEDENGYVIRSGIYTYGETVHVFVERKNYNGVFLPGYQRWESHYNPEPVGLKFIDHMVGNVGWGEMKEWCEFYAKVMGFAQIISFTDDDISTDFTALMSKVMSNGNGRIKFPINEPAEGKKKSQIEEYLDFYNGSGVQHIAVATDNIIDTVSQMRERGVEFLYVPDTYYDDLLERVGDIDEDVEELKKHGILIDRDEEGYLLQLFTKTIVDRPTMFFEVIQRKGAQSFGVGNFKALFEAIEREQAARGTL
Kordia algicida HPPD "SEQ ID No. 5", sequence (A9DQF2 entry or part of it): as above

## Cc1ccc(C(=O)COc2c(C(=O)c3ccc(Cl)c(C)c3Cl)c(C)nn2C)cc1 [Benzofenap]
[1]; [9]
  inhibition at 5 µM: 97%
[1]; read-out: pI50 (converted)
  IC50: < 2.51 µM

## COCCOCc1nc(C(F)(F)F)ccc1C(=O)C1=C(O)C2CCC(C2)C1=O (centres unmarked) [Bicyclopyrone, 4-hydroxy-3-[[2-[(2-methoxyethoxy)methyl]-6-(trifluoromethyl)-3-pyridinyl]carbonyl]bicyclo[3.2.1]oct-3-en-2-one]
[2]; inhibitor 10^−6 M
  level of leaf disk regeneration: ++
[3]; inhibitor 10^−6 M
  level of leaf disk regeneration: −
[1]; read-out: pI50 (converted)
  IC50: 10 µM
[1]
  inhibition at 5 µM: 38%
[4]; line 121
  % of tolerant plant: 39%
  Class I, number of plants (injury: 0-30%): 90
  Class II, number of plants (injury: 31-100%): 138
[4]; line 129
  % of tolerant plant: 30%
  Class I, number of plants (injury: 0-30%): 47
  Class II, number of plants (injury: 31-100%): 111
[4]; line 218
  % of tolerant plant: 64%
  Class I, number of plants (injury: 0-30%): 100
  Class II, number of plants (injury: 31-100%): 56
Wild type tobacco plants
  % of tolerant plant: 0%
  Class I, number of plants (injury: 0-30%): 0
  Class II, number of plants (injury: 31-100%): 12

## CS(=O)(=O)c1cc(C(F)(F)F)ccc1C(=O)C(C#N)C(=O)C1CC1 (centres unmarked) [Diketonitrile, 2-cyano-3-cyclopropyl-1-(2-methylsulphonyl-4-trifluoromethylphenyl)-propane-1,3-dione]
[5]; read-out: Ki
  Ki: 15 µM
[2]; diketonitrile 5.10^−6 M
  level of leaf disk regeneration: +
[3]; diketonitrile 5.10^−6 M
  level of leaf disk regeneration: −
[1]; [9]
  inhibition at 5 µM: 80%
[1]; read-out: pI50 (converted)
  IC50: 2 µM

## CP(=O)(O)CCC(N)C(=O)O (centres unmarked) [Glufosinate-ammonium]
[6]; 1000 g AI/ha, line 639
  Class I, number of plants (no injuries): 10
  Class II, number of plants (injury: 10-40%): 0
  Class III, number of plants (injury: 41-100%): 0
[6]; 1000 g AI/ha, line 714
  Class I, number of plants (no injuries): 10
  Class II, number of plants (injury: 10-40%): 0
  Class III, number of plants (injury: 41-100%): 0
[6]; 1000 g AI/ha, line 717
  Class I, number of plants (no injuries): 10
  Class II, number of plants (injury: 10-40%): 0
  Class III, number of plants (injury: 41-100%): 0

## O=C(O)CNCP(=O)(O)O [Glyphosate]
[6]; 1121 g AI/ha, line 639
  Class I, number of plants (no injuries): 9
  Class II, number of plants (injury: 10-40%): 0
  Class III, number of plants (injury: 41-100%): 1
[6]; 1121 g AI/ha, line 714
  Class I, number of plants (no injuries): 10
  Class II, number of plants (injury: 10-40%): 0
  Class III, number of plants (injury: 41-100%): 0
[6]; 1121 g AI/ha, line 717
  Class I, number of plants (no injuries): 10
  Class II, number of plants (injury: 10-40%): 0
  Class III, number of plants (injury: 41-100%): 0

## O=C(O)C(=O)Cc1ccc(O)cc1 [HPP, para-hydroxyphenylpyruvate]
[7]
  Km: 6.3 µM
  Vmax: 1.2 µM
[5]; [10]
  Km: 292 µM
  Vmax: 13.6 µM

## CS(=O)(=O)c1ccc(C(=O)C2C(=O)CCCC2=O)c([N+](=O)[O-])c1 [Mesotrione, 2-[4-(methylsulfonyl)-2-nitrobenzoyl]-1,3-cyclohexanedione]
[2]; inhibitor 10^−6 M
  level of leaf disk regeneration: +
[3]; inhibitor 10^−6 M
  level of leaf disk regeneration: −

## Cc1nn(C)c(O)c1C(=O)c1ccc(C(F)(F)F)cc1S(C)(=O)=O [Pyrasulfotole]
[8]
  IC50: 3.98 µM
[8]; read-out: percentage of inhibition compared to the activity in absence of the inhibitor
  inhibition at 5 µM: 69%
[1]
  IC50: 12.6 µM
  inhibition at 5 µM: 43%

## CS(=O)(=O)c1ccc(C(=O)C2C(=O)CCCC2=O)c(Cl)c1COCC1CCCO1 (centres unmarked) [Tefuryltrione, 2-[2-chloro-4-(methylsulfonyl)-3-[[(tetrahydro-2-furanyl)methoxy]methyl]benzoyl]-1,3-cyclohexanedione]
[1]; [9]
  inhibition at 5 µM: 73%
[1]; read-out: pI50 (converted)
  IC50: 1.58 µM
